Data taken from US5849729A, “Use of hydrolyzed cocoa butter for percutaneous absorption” (Hershey Foods Corporation, priority 1995, dated 1998).
Several values for one entry are separate records, joined by “and”; a condition that tells them apart may be missing. Identical values can stand only once. Entries after “also recorded” stand apart in the source; their conditions may differ. Like-named read-outs stand apart in the source and are kept apart here.

Tests used:
[1] = cited from earlier work
[2] = In-vitro percutaneous absorption of retinoic acid and triamcinolone acetonide from two cocoa butter vehicles (Franz cells, 48 h); details: for Penet (Total Penetration) / % Abs (% Absorbed) / Total Penetration / % Absorbed / total absorption: 48 h; for % Abs (% Absorbed) / % Absorbed / total absorption: percent of applied dose
Text: The objective of this study was to measure the permeation of retinoic acid and triamcinolone acetonide through human skin in-vitro from two cocoa butter vehicles.
Two cocoa butter vehicles supplied by Hershey Foods Corporation were utilized: (1) pure cocoa butter and (2) partially hydrolyzed cocoa butter emulsion. Radioactive [11,12-^3 H] [retinoic acid (NET 920, Lot 2930-067, specific activity 1 mCi/ml) and [6,7-^3 H]-triamcinolone acetonide (NET 470, Lot 2904-170, specific activity 1 mCi/ml) were obtained from Dupont-New England Nuclear Corporation, Boston, Mass.
Each of the two cocoa butter vehicles was spiked separately with ^3 H-retinoic acid and ^3 H-Triamcinolone acetonide to give a total of four radioactive formulations for study. This was done by adding 25 μl (containing 25 μCi) of each tracer solution to approximately 1 gram of each vehicle and mixing with the tip of the dispensing micropipette. The pure cocoa butter vehicle was liquified by holding it under warm tap water prior to spiking. This was not done with the partially hydrolyzed cocoa butter emulsion. Neither formulation was used for three days after spiking to allow for diffusional mixing to take place. Final radioactive concentrations of each formulation were: […]
Human trunk skin without obvious signs of disease was used throughout. It was obtained within 24 hours of death, dermatomed to a thickness of approximately 0.25 mm, cryopreserved and sealed in water vapor-impermeableplastic bags. It was stored at -70° C. until the day of use then thawed by placing the bag in 37° C. water.
Skin from a single donor was cut into multiple sections large enough to fit on 0.8 cm^2 Franz cells. The dermal chamber was filled with isotonic saline, pH 7.4, into which a small magnetic stirring bar was placed. The epidermal chamber was left open to the ambient laboratory environment, approximately 22° C. and 40-60% RH. The cells were placed in a diffusion apparatus in which the dermal receptor solution was stirred magnetically at 600 RPM and its temperature maintained at 37° C.
To assure the integrity of each skin section, its permeability to tritiated water was determined before application of the test formulations. Following a brief (0.5-1 hour) equilibration period, 150 μl ^3 H2 O (specific activity 0.3 μCi/ml) was layered across the top of the skin section so that the entire exposed surface was covered. After 5 minutes the aqueous layer was removed and the surface of the skin carefully blotted dry. At t=0.5 hour the saline receptor phase was removed and analyzed for radioactive content by liquid scintillation counting. Skin specimens in which absorption of ^3 H2 O was less than 1.25 μl were considered acceptable.
Subsequently, each test formulation was applied at a target dose of 10 mg (cream) or 10 μl (butter). The cream formulation (partially hydrolyzed cocoa butter emulsion) was applied from the smooth, rounded-tip of a glass rod, the exact amount determined by weighing the rod before and after application. The butter formulation (pure cocoa butter) was first liquified under warm tap water, allowed to cool to room temperature, then applied with a 10 μl positive displacement micropipette prior to resolidifying. At 4, 8, 12, 24, 36 and 48 hours the receptor solution was removed in its entirety, replaced with fresh solution, and a 1 ml aliquot taken and assayed for radioactive content by liquid scintillation counting.
A 1 ml aliquot of each receptor sample containing ^3 H2 O, ^3 H-retinoic acid, or ^3 H-triamcinolone acetonide was placed in a 7 ml glass scintillation vial and gelled by the addition of 5 ml Opti-Fluor (Packard Instrument Co., Meriden, Conn.). These were counted in a Packard Tri-Carb Model 1900CA Liquid scintillation Analyzer equipped with internal standard and automatic quench correction.

[3] = butter (pure cocoa butter), individual skin sections, listed as TRIAMINOLONE ACETONIDE
[4] = butter, average of three donors
[5] = cream (partially hydrolyzed cocoa butter emulsion), individual skin sections, listed as TRIAMINOLONE ACETONIDE

With `C[S+](C)[O-]` [dimethyl sulfoxide] as the compound, how does the side effects ([1]; topical use, in words) read?
Its side effects is “a foul taste and body odor, burning and erythema on the skin; a reduction in the relucency of the lens cortex and tissue necrosis”.

Which side effects ([1]; topical use, in words) does the source give for `CN(C)C=O` [Dimethylformamide] here?
The side effects was “a sensation of burning and erythema on the skin”.

For `CC1(C)O[C@@H]2C[C@H]3[C@@H]4CCC5=CC(=O)C=C[C@]5(C)[C@@]4(F)[C@@H](O)C[C@]3(C)[C@]2(C(=O)CO)O1` [triamcinolone acetonide], which “rate of absorption profile / flux” value ([2]; both cocoa butter formulations, in words) is on record?
The value was “absorption continues to increase at a slow rate; also recorded: relatively high flux rates”.

And the “Penet (Total Penetration)” value [2, 3]?
The value was 524.71 and 252.43 and 268.51 and 390.54 and 1505.05 and 2037.47 and 2111.25 and 1993.70 and 1506.22 and 770.57 and 821.16 and 931.82.

And the “% Abs (% Absorbed)” value [2, 3]?
Its value is 5.24% and 2.52% and 2.86% and 3.90% and 15.04% and 20.36% and 21.10% and 19.92% and 15.05% and 7.70% and 8.21% and 9.31%.

What about the “Rate of absorption, R1” value ([2]; butter (pure cocoa butter), sample R1, mid-t 2 h, individual skin sections, listed as TRIAMINOLONE ACETONIDE) of the same compound?
Its value is 4.39 ng/cm^2 /hr and 1.60 ng/cm^2 /hr and 4.85 ng/cm^2 /hr and 2.94 ng/cm^2 /hr and 5.03 ng/cm^2 /hr and 5.86 ng/cm^2 /hr and 13.93 ng/cm^2 /hr and 14.30 ng/cm^2 /hr and 10.13 ng/cm^2 /hr and 6.97 ng/cm^2 /hr and 3.85 ng/cm^2 /hr and 4.31 ng/cm^2 /hr.

And the “Rate of absorption, R3” value ([2]; butter (pure cocoa butter), sample R3, mid-t 10 h, individual skin sections, listed as TRIAMINOLONE ACETONIDE)?
The value was 4.10 ng/cm^2 /hr and 1.98 ng/cm^2 /hr and 3.21 ng/cm^2 /hr and 1.85 ng/cm^2 /hr and 39.10 ng/cm^2 /hr and 54.60 ng/cm^2 /hr and 49.52 ng/cm^2 /hr and 41.58 ng/cm^2 /hr and 31.25 ng/cm^2 /hr and 11.42 ng/cm^2 /hr and 13.09 ng/cm^2 /hr and 17.61 ng/cm^2 /hr.

And the “Rate of absorption, R4” value ([2]; butter (pure cocoa butter), sample R4, mid-t 18 h, individual skin sections, listed as TRIAMINOLONE ACETONIDE)?
The value was 10.64 ng/cm^2 /hr and 4.64 ng/cm^2 /hr and 5.65 ng/cm^2 /hr and 6.96 ng/cm^2 /hr and 41.81 ng/cm^2 /hr and 61.91 ng/cm^2 /hr and 60.58 ng/cm^2 /hr and 63.34 ng/cm^2 /hr and 42.50 ng/cm^2 /hr and 16.59 ng/cm^2 /hr and 19.25 ng/cm^2 /hr and 21.60 ng/cm^2 /hr.

And the “Rate of absorption, R5” value ([2]; butter (pure cocoa butter), sample R5, mid-t 30 h, individual skin sections, listed as TRIAMINOLONE ACETONIDE)?
The value was 16.77 ng/cm^2 /hr and 7.47 ng/cm^2 /hr and 7.89 ng/cm^2 /hr and 11.61 ng/cm^2 /hr and 44.77 ng/cm^2 /hr and 55.96 ng/cm^2 /hr and 68.48 ng/cm^2 /hr and 56.67 ng/cm^2 /hr and 44.03 ng/cm^2 /hr and 24.96 ng/cm^2 /hr and 28.20 ng/cm^2 /hr and 30.50 ng/cm^2 /hr.

What about the “Rate of absorption, R6” value ([2]; butter (pure cocoa butter), sample R6, mid-t 42 h, individual skin sections, listed as TRIAMINOLONE ACETONIDE) of the same compound?
Its value is 23.72 ng/cm^2 /hr and 12.43 ng/cm^2 /hr and 12.16 ng/cm^2 /hr and 19.97 ng/cm^2 /hr and 48.08 ng/cm^2 /hr and 65.20 ng/cm^2 /hr and 60.71 ng/cm^2 /hr and 62.32 ng/cm^2 /hr and 49.91 ng/cm^2 /hr and 30.50 ng/cm^2 /hr and 30.09 ng/cm^2 /hr and 34.64 ng/cm^2 /hr.

What about the “Total Penetration” value [2, 4] of the same compound?
Its value is 1094.29.

And the “Rate of absorption, R1” value ([2]; butter, R1, mid-t 2 h, average of three donors)?
Its value is 6.52 ng/cm^2 /hr.

What about the “Rate of absorption, R3” value ([2]; butter, R3, mid-t 10 h, average of three donors) of the same compound?
Its value is 22.44 ng/cm^2 /hr.

And the “Rate of absorption, R4” value ([2]; butter, R4, mid-t 18 h, average of three donors)?
The value was 29.62 ng/cm^2 /hr.

And the “Rate of absorption, R5” value ([2]; butter, R5, mid-t 30 h, average of three donors)?
The value was 33.11 ng/cm^2 /hr.

What about the “Rate of absorption, R6” value ([2]; butter, R6, mid-t 42 h, average of three donors) of the same compound?
The value was 37.48 ng/cm^2 /hr.

What about the “% Absorbed / total absorption” value [2, 4] of the same compound?
The value was 10.9%.

What about the “% Absorbed / total absorption” value ([2]; butter, average of three donors, listed as Triamcinalone) of the same compound?
The value was 10.93%.

And the “rate of absorption, cream versus butter” value ([2]; comparison of both formulations, in words)?
Its value is “The cream formulation gives a slightly higher rate of absorption than the butter”.

What about the “Penet (Total Penetration)” value [2, 5] of the same compound?
Its value is 254.48 and 668.59 and 249.45 and 118.36 and 2508.36 and 2312.05 and 2871.31 and 2499.51 and 947.51 and 935.57 and 1068.65 and 1271.22.

And the “% Abs (% Absorbed)” value [2, 5]?
Its value is 2.49% and 6.22% and 2.57% and 1.23% and 19.85% and 17.85% and 23.91% and 21.77% and 9.37% and 8.49% and 9.22% and 13.72%.

What about the “Rate of absorption, R1” value ([2]; cream (partially hydrolyzed cocoa butter emulsion), sample R1, mid-t 2 h, individual skin sections, listed as TRIAMINOLONE ACETONIDE) of the same compound?
Its value is 3.04 ng/cm^2 /hr and 1.67 ng/cm^2 /hr and 5.26 ng/cm^2 /hr and 1.52 ng/cm^2 /hr and 18.29 ng/cm^2 /hr and 17.50 ng/cm^2 /hr and 18.71 ng/cm^2 /hr and 12.90 ng/cm^2 /hr and 4.30 ng/cm^2 /hr and 2.33 ng/cm^2 /hr and 15.97 ng/cm^2 /hr and 3.83 ng/cm^2 /hr.

What about the “Rate of absorption, R3” value ([2]; cream (partially hydrolyzed cocoa butter emulsion), sample R3, mid-t 10 h, individual skin sections, listed as TRIAMINOLONE ACETONIDE) of the same compound?
The value was 3.36 ng/cm^2 /hr and 3.23 ng/cm^2 /hr and 5.64 ng/cm^2 /hr and 0.96 ng/cm^2 /hr and 59.17 ng/cm^2 /hr and 56.60 ng/cm^2 /hr and 68.40 ng/cm^2 /hr and 55.15 ng/cm^2 /hr and 21.00 ng/cm^2 /hr and 18.75 ng/cm^2 /hr and 20.37 ng/cm^2 /hr and 22.71 ng/cm^2 /hr.

What about the “Rate of absorption, R4” value ([2]; cream (partially hydrolyzed cocoa butter emulsion), sample R4, mid-t 18 h, individual skin sections, listed as TRIAMINOLONE ACETONIDE) of the same compound?
Its value is 5.74 ng/cm^2 /hr and 12.44 ng/cm^2 /hr and 6.13 ng/cm^2 /hr and 2.07 ng/cm^2 /hr and 63.18 ng/cm^2 /hr and 60.43 ng/cm^2 /hr and 79.96 ng/cm^2 /hr and 72.84 ng/cm^2 /hr and 26.40 ng/cm^2 /hr and 25.54 ng/cm^2 /hr and 27.04 ng/cm^2 /hr and 31.56 ng/cm^2 /hr.

What about the “Rate of absorption, R5” value ([2]; cream (partially hydrolyzed cocoa butter emulsion), sample R5, mid-t 30 h, individual skin sections, listed as TRIAMINOLONE ACETONIDE) of the same compound?
Its value is 7.24 ng/cm^2 /hr and 17.67 ng/cm^2 /hr and 6.59 ng/cm^2 /hr and 3.75 ng/cm^2 /hr and 73.13 ng/cm^2 /hr and 69.96 ng/cm^2 /hr and 81.15 ng/cm^2 /hr and 70.51 ng/cm^2 /hr and 30.37 ng/cm^2 /hr and 30.85 ng/cm^2 /hr and 35.59 ng/cm^2 /hr and 41.22 ng/cm^2 /hr.

What about the “Rate of absorption, R6” value ([2]; cream (partially hydrolyzed cocoa butter emulsion), sample R6, mid-t 42 h, individual skin sections, listed as TRIAMINOLONE ACETONIDE) of the same compound?
The value was 10.49 ng/cm^2 /hr and 37.33 ng/cm^2 /hr and 7.93 ng/cm^2 /hr and 5.35 ng/cm^2 /hr and 83.06 ng/cm^2 /hr and 70.37 ng/cm^2 /hr and 91.88 ng/cm^2 /hr and 81.89 ng/cm^2 /hr and 28.80 ng/cm^2 /hr and 30.03 ng/cm^2 /hr and 32.01 ng/cm^2 /hr and 46.16 ng/cm^2 /hr.

What about the “Total Penetration” value ([2]; cream, average of three donors) of the same compound?
The value was 1308.76.

And the “% Absorbed / total absorption” value ([2]; cream, average of three donors)?
The value was 11.4%.

And the “% Absorbed / total absorption” value ([2]; cream, average of three donors, listed as Triamcinalone)?
The value was 11.39%.

What about the “difference between partially hydrolyzed cocoa butter emulsion and pure cocoa butter as delivery vehicle” value ([2]; in words) of the same compound?
The value was “no appreciable difference”.

What about the average absorption ([2]; with cocoa butter and partially hydrolyzed cocoa butter emulsion (both vehicles)) of the same compound?
The average absorption was “about 11%”.

With `CNC(C)=O` [methylacetamide] as the compound, how does the side effects ([1]; in vivo) read?
The side effects was “a sensation of burning and erythema on the skin”.
